One test deals with T1, Aβ1−42 fibrils (Homo sapiens, UniProt P05067).
T1 construct: 1 mg of β-amyloid1–42 peptide (Abcam, Cambridge, UK); purchased Abcam
The test is described as follows: Competition binding assay against [^3H]DCVJ, Aβ1−42 fibrils. The note with it: [^3H]DCVJ was used (10 nM); Aβ1−42 aggregates 125 nM; read-out: Ki Aβ. As for the experimental part: After the dissolution of 1 mg of β-amyloid1–42 peptide (Abcam, Cambridge, UK) in 50 μL of DMSO, 925 μL of Milli-Q® water was added to it, and the mixture was stirred. Finally, 25 μL of 1M Tris HCl, pH 7.4 was added to bring the final peptide concentration to 1 mg/mL. The mixture was then left to incubate at 37 °C for 30 h with shaking at 900 rpm. To separate the non-aggregated monomers from the formed fibrils, the reaction mixture was centrifuged at 12,000× g for 5 min, and the resulting pellet was washed three times with 500 μL of 20 mM Tris-HCl, pH 7.4. The supernatants from the three centrifugation steps were combined, and the concentration of the monomer in the resulting supernatant was determined in a BCA assay (Thermo Fisher Scientific, Waltham, MA, USA) (with a BSA standard curve). Determination of the concentration of fibrils formed was carried out by subtracting the amount of β-amyloid1−42 peptide monomer in the supernatant from the initial amount used for fibrillation.
The pellets of the fibrils obtained above (Section 4.2.1) were resuspended in 20 mM of Tris-HCl, pH 7.4 and diluted as needed for the binding assays.
(§1) A fixed concentration of [^3H]DCVJ (10 nM) and α-synuclein aggregates (125 nM), prepared as described above (Section 4.2.3), was used with different final concentrations of the DABTAs from 0.01 to 100 nM (see SI Figure S1). The experiment was carried out in quintuplicate for each concentration. The mixture was incubated for 2 h in a final volume of 200 μL per well after dilution with 20 mM of Tris-HCl, pH 7.4. The incubated mixtures were filtered through a Perkin Elmer GF/B glass filter via a TOMTEC cell harvester and immediately washed thrice with 1 mL of deionized water. The filters containing the bound ligands were dried and afterwards mixed with 3 mL of BetaPlate Scint solution (Perkin Elmer Life Sciences, Waltham, MA, USA) and left there for 2 h before counting in a Wallac 1450 MicroBeta TriLux Liquid Scintillation Counter (PerkinElmer Life Sciences, Waltham, MA, USA). For the determination of the inhibition constants, data were analyzed using GraphPad Prism software (version 7.0) to obtain IC50 values by fitting the data to the equation Y = bottom + (top − bottom)/(1 + 10(x − log IC50)). Ki values were calculated from IC50 values using the equation Ki = IC50/(1 + [radioligand]/Kd). […] Further protocol was carried out as for [^3H]DCVJ (see SI Figure S3).
Fixed concentrations (125 nM) of Aβ1−42, tau aggregates, and [^3H]DCVJ (10 nM and 20 nM for the Aβ1−42 and tau competition experiments respectively) were used with different concentrations of cold versions of the tracers from 1 to 1000 nM (See SI Figure S2). The experiment was performed in quadruplicate for each concentration. […]

The target in another test is tau fibrils (Homo sapiens, UniProt P10636). The test is described as follows: Competition binding assay against [^3H]PiB, tau fibrils. The method, then: as §1, with “Recombinant tau monomer (R&D systems, Minneapolis, MN, USA) was dissolved in 20 mM of Tris HCl, pH 8.0, 100 mM of NaCl, 25 μM of low-MW heparin, and 0.5 mM of dithiothreitol to a final concentration of 300 µg/mL. The mixture was incubated with shaking at 900 rpm at 37 °C for 48 h. To separate the non-aggregated monomers from the formed fibrils, the reaction mixture was centrifuged at 12,000× g for 5 min, and the resulting pellet was washed three times with 500 μL of 20 mM Tris-HCl, pH 7.4. The supernatants from the three centrifugation steps were combined, and the concentration of the monomer in the resulting supernatant was determined in a BCA assay(Thermo Fisher Scientific, Waltham, MA, USA) (with a BSA standard curve). Determination of the concentration of fibrils formed was carried out by subtracting the amount of tau peptide monomer in the supernatant from the initial amount used for fibrillation. The pellets of the fibrils obtained above (Section 4.2.1) were resuspended in 20 mM of Tris-HCl, pH 7.4 and diluted as needed for the binding assays. A fixed” for “A fixed”, “Figure S3). […] Further procedures followed the same already described in Section 4.2.3.1 (See SI Figure S4).” for “Figure S3).”

Test [1] has as its target T2, recombinant α-syn fibrils (Homo sapiens, UniProt P37840).
T2 construct: made in house
The test can be described thus: Competition binding assay against [^3H]PiB, α-syn fibrils. Conditions: for Selectivity Aβ/α-syn / Selectivity tau/α-syn: ratio of Ki, [^3H]PiB was used.

Chain of tau fibrils (P10636 2-758): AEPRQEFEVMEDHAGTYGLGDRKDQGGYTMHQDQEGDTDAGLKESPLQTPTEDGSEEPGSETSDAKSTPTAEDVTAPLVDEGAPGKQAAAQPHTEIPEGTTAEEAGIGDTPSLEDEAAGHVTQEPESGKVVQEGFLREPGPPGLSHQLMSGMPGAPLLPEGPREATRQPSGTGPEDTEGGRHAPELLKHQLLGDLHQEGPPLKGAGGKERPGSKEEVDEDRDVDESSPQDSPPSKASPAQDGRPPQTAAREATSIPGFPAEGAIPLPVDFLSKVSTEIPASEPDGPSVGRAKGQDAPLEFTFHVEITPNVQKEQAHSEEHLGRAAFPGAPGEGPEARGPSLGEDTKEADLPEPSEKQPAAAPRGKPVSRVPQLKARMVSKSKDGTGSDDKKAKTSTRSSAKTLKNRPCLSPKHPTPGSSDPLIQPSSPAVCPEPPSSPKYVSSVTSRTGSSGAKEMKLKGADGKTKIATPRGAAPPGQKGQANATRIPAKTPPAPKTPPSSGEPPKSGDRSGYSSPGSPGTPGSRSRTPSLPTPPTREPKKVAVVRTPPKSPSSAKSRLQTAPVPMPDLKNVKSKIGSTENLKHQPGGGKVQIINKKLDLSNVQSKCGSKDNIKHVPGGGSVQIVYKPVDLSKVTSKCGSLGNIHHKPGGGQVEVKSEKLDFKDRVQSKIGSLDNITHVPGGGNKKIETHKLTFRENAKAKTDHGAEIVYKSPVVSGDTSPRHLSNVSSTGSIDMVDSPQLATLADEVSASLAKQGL
T1 sequence (P05067 672-713): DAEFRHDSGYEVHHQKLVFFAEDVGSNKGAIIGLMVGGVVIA

Take `Fc1ncc(-c2csc(-c3nc(-c4cnc5c(c4)OCO5)cs3)n2)cn1` [d10]: the Ki at Aβ1−42 fibrils turned out to be 407 nM. Besides, the Ki on tau fibrils came to 434 nM. Besides, in test [1], the Ki was 4.75 nM, the “Selectivity Aβ/α-syn” value stood at 45.1 and the “Selectivity tau/α-syn” value was 91.5.
As to `FCCOc1cnc(-c2csc(-c3nc(-c4cnc5c(c4)OCO5)cs3)n2)nc1` [f4, 6-(4′-(5-(2-Fluoroethoxy)pyrimidin-2-yl)-[2,2′-bithiazol]-4-yl)-[1,3]dioxolo[4,5-b]pyridine], on Aβ1−42 fibrils, the Ki stood at 251 nM. Further, the Ki at tau fibrils stood at 766 nM. Further, in test [1], the Ki worked out at 1.51 nM, the “Selectivity Aβ/α-syn” value was determined as 122.6 and the “Selectivity tau/α-syn” value was 507.5.
For `FCCOc1cnc(-c2csc(-c3nc(-c4ccc5c(c4)OCO5)cs3)n2)nc1` [f5, 4-(Benzo[d][1,3]dioxol-5-yl)-4′-(5-(2-fluoroethoxy)pyrimidin-2-yl)-2,2′-bithiazole] the same measures were 134 nM, 516 nM, 2.88 nM, 53.8 and 179.2.
The corresponding values for `FCCOCCOc1cnc(-c2csc(-c3nc(-c4ccc5c(c4)OCO5)cs3)n2)nc1` [f6, 4-(Benzo[d][1,3]dioxol-5-yl)-4′-(5-(2-(2-fluoroethoxy)ethoxy)pyrimidin-2-yl)-2,2′-bithiazole] are 198 nM, 362 nM, 4.89 nM, 19.8 and 74.1.

The values above are taken from paper PMC10671360, “In Silico and In Vitro Study towards the Rational Design of 4,4′-Disarylbisthiazoles as a Selective α-Synucleinopathy Biomarker” (International Journal of Molecular Sciences, 2023).
